According to PubChem BioAssay (NCI):
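Cells were grown in 96-well plates and exposed to each compound for 48 hours at five concentrations; endpoints were interpolated linearly between bracketing concentrations, or set to the highest concentration if not reached. Here, GI50 denotes the concentration required for 50% inhibition of growth. At the TGI there is no net growth.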

Legend:
Assay in all cases: NCI tumour cell line growth inhibition, 48 h
[1] = test system: MDA-MB-435
[2] = test system: CCRF-CEM leukemia
[3] = test system: IGROV1 ovarian
[4] = test system: HS 578T breast
[5] = test system: SN12C renal
[6] = test system: LOX IMVI melanoma
[7] = test system: NCI-H460 lung
[8] = test system: NCI-H226 lung
[9] = test system: NCI/ADR-RES ovarian
[10] = test system: PC-3 prostate
[11] = test system: EKVX NSCLC
[12] = test system: COLO 205 colon
[13] = test system: UACC-257 melanoma
[14] = test system: MCF7 breast
[15] = test system: T-47D breast
[16] = test system: SF-295 CNS
[17] = test system: 786-0 renal
[18] = test system: OVCAR-8 ovarian
[19] = test system: SK-MEL-28 melanoma
[20] = test system: M14 melanoma
[21] = test system: HOP-92 NSCLC
[22] = test system: TK-10 renal
[23] = test system: SR leukemia
[24] = test system: MDA-MB-231 breast
[25] = test system: RPMI-8226 leukemia
[26] = test system: SNB-75 CNS
[27] = test system: SF-268 CNS
[28] = test system: OVCAR-3 ovarian
[29] = test system: OVCAR-5 ovarian
[30] = test system: HL-60(TB) leukemia
[31] = test system: DU-145 prostate
[32] = test system: CAKI-1 renal
[33] = test system: KM12 colon
[34] = test system: HT29 colon
[35] = test system: BT-549 breast
[36] = test system: SNB-19 CNS
[37] = test system: SK-MEL-5 melanoma
[38] = test system: NCI-H23 lung
[39] = test system: SF-539 CNS
[40] = test system: HCT-15 colon
[41] = test system: K-562 leukemia
[42] = test system: OVCAR-4 ovarian
[43] = test system: SK-MEL-2 melanoma
[44] = test system: A498 renal
[45] = test system: SK-OV-3 ovarian
[46] = test system: MOLT-4 leukemia
[47] = test system: SW-620 colon
[48] = test system: MDA-MB-468 breast
[49] = test system: UACC-62 melanoma
[50] = test system: UO-31 renal
[51] = test system: ACHN renal
[52] = test system: NCI-H522 lung
[53] = test system: RXF 393 renal
[54] = test system: HOP-62 NSCLC
[55] = test system: MALME-3M melanoma
[56] = test system: U251 CNS
[57] = test system: HCC-2998 colon
[58] = test system: A549 NSCLC

## CCCCSc1nc(Nc2ccc(/C(C)=N/NC(N)=S)cc2)c(C#N)c(-c2ccc(F)cc2)n1
[1]
  GI50: 4.13 µM
  TGI: 24.8 µM
[2]
  GI50: 0.814 µM
  TGI: > 100 µM
[3]
  GI50: 12 µM
  TGI: 30.3 µM
[4]
  GI50: 1.71 µM
  TGI: 8.14 µM
[5]
  GI50: 11.8 µM
  TGI: 57 µM
[6]
  GI50: 1.88 µM
  TGI: 10.1 µM
[7]
  GI50: 0.578 µM
  TGI: 2.25 µM
[8]
  GI50: 1.59 µM
  TGI: 5.29 µM
[9]
  GI50: 1.34 µM
  TGI: 5.72 µM
[10]
  GI50: 1.42 µM
  TGI: 7.02 µM
[11]
  GI50: 3.67 µM
  TGI: 17.2 µM
[12]
  GI50: 4.03 µM
  TGI: 23.1 µM
[13]
  GI50: 15.4 µM
  TGI: 61.8 µM
[14]
  GI50: 0.893 µM
  TGI: 11.4 µM
[15]
  GI50: 1.19 µM
  TGI: 18 µM
[16]
  GI50: 1.21 µM
  TGI: 2.75 µM
[17]
  GI50: 1.69 µM
  TGI: 3.88 µM
[18]
  GI50: 3.85 µM
  TGI: 21.1 µM
[19]
  GI50: 3.83 µM
  TGI: 17.9 µM
[20]
  GI50: 3.52 µM
  TGI: 19.6 µM
[21]
  GI50: 1.23 µM
  TGI: 4.01 µM
[22]
  GI50: 2.92 µM
  TGI: 7.08 µM
[23]
  GI50: 8.62 µM
  TGI: > 100 µM
[24]
  GI50: 1.03 µM
  TGI: 4.28 µM
[25]
  GI50: 3.4 µM
  TGI: > 100 µM
[26]
  GI50: 1.6 µM
  TGI: 6.54 µM
[27]
  GI50: 13.6 µM
  TGI: 89.3 µM
[28]
  GI50: 2.57 µM
  TGI: 10.1 µM
[29]
  GI50: 12.5 µM
  TGI: 50.5 µM
[30]
  GI50: > 100 µM
  TGI: > 100 µM
[31]
  GI50: 3.12 µM
  TGI: 49.8 µM
[32]
  GI50: 1.71 µM
  TGI: 4.97 µM
[33]
  GI50: 15.9 µM
  TGI: > 100 µM
[34]
  GI50: 5.89 µM
  TGI: > 100 µM
[35]
  GI50: 6.6 µM
  TGI: 28.1 µM
[36]
  GI50: 2.51 µM
  TGI: 8.31 µM
[37]
  GI50: 2.3 µM
  TGI: 12.5 µM
[38]
  GI50: 1.56 µM
  TGI: 4.69 µM
[39]
  GI50: 1.4 µM
  TGI: 4.49 µM
[40]
  GI50: 1.38 µM
  TGI: 16.8 µM
[41]
  GI50: 4.46 µM
  TGI: > 100 µM
[42]
  GI50: 1.85 µM
  TGI: 85.5 µM
[43]
  GI50: 4.4 µM
  TGI: 20 µM
[44]
  GI50: 2.7 µM
  TGI: 7.1 µM
[45]
  GI50: 3.54 µM
  TGI: 9.87 µM
[46]
  GI50: 3.63 µM
  TGI: > 100 µM
[47]
  GI50: 2.7 µM
  TGI: 42.1 µM
[48]
  GI50: 2.26 µM
  TGI: 8.99 µM
[49]
  GI50: 2.91 µM
  TGI: 12 µM
[50]
  GI50: 0.761 µM
  TGI: 3.01 µM
[51]
  GI50: 0.858 µM
  TGI: 4.37 µM
[52]
  GI50: 1.92 µM
  TGI: 7.05 µM
[53]
  GI50: 1.97 µM
  TGI: 5.49 µM
[54]
  GI50: 2.25 µM
  TGI: 5.1 µM
[55]
  GI50: 2.39 µM
  TGI: 11.5 µM
[56]
  GI50: 1.24 µM
  TGI: 3.83 µM
[57]
  GI50: 3.29 µM
  TGI: 18.7 µM
[58]
  GI50: 2.35 µM
  TGI: 7.57 µM
